Test results published in US10308648B2, “Inhibitors of cyclin-dependent kinase 7 (CDK7)” (Syros Pharmaceuticals, Inc., priority 2014, dated 2019).
Counter-ions that a name gives are not always drawn.

Columns and labels:
CDK7 = CDK7 (Homo sapiens (Human), UniProt P50613); assay: CDK7 kinase activity (Life Technologies Adapta kinase assay); format: biochemical; conditions: 10 μM down to 0.514 nM, 3-fold serial dilutions, read-out: CDK7 Inhibition (IC50)
Protocol: Compounds of the invention were assayed for CDK7 activity at Life Technologies™ (Grand Island, N.Y.) using their commercially available Adapta® kinase assay services. Test compounds were tested at concentrations ranging from 10 μM down to 0.514 nM in a series of 3-fold serial dilutions. Details of this assay, including substrates used, are available on the Life Technologies web site (http://www.lifetechnologies.com/us/en/home/life-science/drug-discovery/target-and-lead-identification-and-validation/kinasebiology/kinase-activity-assays.html). The results of the assay are shown below in Table 3 where “A” represents a calculated IC50 of less than 100 nM; “B” represents a calculated IC50 of between 100 nM and 1 μM; and “C” represents a calculated IC50 of greater than 1 μM.

Jurkat cells = assay: Inhibition of proliferation of Jurkat cells (CellTiter-Glo); format: cell-based; conditions: Homo sapiens, 72 hour proliferation assay
Protocol: Representative compounds of the invention were tested at different concentrations (from 10 μM to […]; 0.5 log serial dilutions) for their ability to inhibit the proliferation of Jurkat cells. Known CDK inhibitors flavopiridol and triptolide were used as positive controls. Cells were grown in RPMI 1640+10% FBS+1% Glutamax. The cells were supplemented with FBS (Life Technologies) and 100 U·mL^−1 penicillin, 100 μg·mL^−1 streptomycin (Invitrogen) and cultured at 37° C. in a humidified chamber in the presence of 5% CO2. Proliferation assays were conducted over a 72 hour time period. CellTiter-Glo® (Promega Corporation, Madison, Wis. USA) was used to assess the anti-proliferative effects of the compounds following manufacturer's directions and utilizing the reagents supplied with the CellTiter-Glo® kit. In this table, “A” represents an IC50 of less than 500 nM; “B” an IC50 of between 500 nM and 5 μM; and “C” an IC50 of greater than 5 μM.

CDK7, sequence (P50613 whole entry): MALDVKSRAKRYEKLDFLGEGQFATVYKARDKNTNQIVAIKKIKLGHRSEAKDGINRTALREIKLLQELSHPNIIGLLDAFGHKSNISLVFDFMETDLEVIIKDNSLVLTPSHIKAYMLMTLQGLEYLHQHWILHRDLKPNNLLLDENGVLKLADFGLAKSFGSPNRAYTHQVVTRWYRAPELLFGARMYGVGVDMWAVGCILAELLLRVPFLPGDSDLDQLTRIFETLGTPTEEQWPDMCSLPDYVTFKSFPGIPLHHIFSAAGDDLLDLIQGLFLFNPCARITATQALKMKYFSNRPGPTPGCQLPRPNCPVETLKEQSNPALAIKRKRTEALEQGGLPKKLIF
CDK7, sequence (P51946 whole entry partner): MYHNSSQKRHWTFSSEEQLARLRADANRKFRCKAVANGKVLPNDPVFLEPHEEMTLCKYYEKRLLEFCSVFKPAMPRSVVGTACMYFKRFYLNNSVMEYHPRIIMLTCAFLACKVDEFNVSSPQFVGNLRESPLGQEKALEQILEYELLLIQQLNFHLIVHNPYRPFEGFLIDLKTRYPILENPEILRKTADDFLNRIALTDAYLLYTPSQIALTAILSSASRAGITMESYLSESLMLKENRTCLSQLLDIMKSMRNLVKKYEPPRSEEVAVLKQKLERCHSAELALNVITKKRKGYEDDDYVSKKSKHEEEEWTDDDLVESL
CDK7, sequence (P51948 whole entry partner): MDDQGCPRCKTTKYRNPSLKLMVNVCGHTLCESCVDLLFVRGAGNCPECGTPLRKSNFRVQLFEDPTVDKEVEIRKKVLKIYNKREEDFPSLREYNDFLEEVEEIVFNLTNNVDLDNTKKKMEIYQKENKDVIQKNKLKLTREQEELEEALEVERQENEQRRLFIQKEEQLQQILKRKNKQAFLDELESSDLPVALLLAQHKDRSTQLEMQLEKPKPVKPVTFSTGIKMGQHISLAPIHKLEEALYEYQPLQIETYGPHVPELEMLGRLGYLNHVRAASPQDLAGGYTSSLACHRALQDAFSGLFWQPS

| SMILES | IC50 (CDK7) [µM] | IC50 (Jurkat cells) [µM] |
| --- | --- | --- |
| Nc1ccc(C(=O)NC23CC4CC(C2)CC(Nc2ncc(Cl)c(-c5c[nH]c6ccccc56)n2)(C4)C3)cc1 [Compound 100, 4-amino-N-(3-(5-chloro-4-(1H-indol-3-yl)pyrimidin-2-ylamino)tricyclo[3.3.1.1^3,7]decanyl)benzamide] | > 1 | – |
| Nc1ccc(C(=O)N[C@H]2CCC[C@@H](Nc3ncc(Cl)c(-c4cccnc4)n3)C2)cc1 [Compound 108, 4-amino-N-((1S,3R)-3-(5-chloro-4-(pyridin-3-yl)pyrimidin-2-ylamino)cyclohexyl)benzamide] | > 1 | > 5 |
| Nc1ccc(C(=O)N[C@H]2CCC[C@@H](Nc3ncc(Cl)c(-c4c[nH]c5ccccc45)n3)C2)cc1F [Compound 111, 4-amino-N-((1S,3R)-3-(5-chloro-4-(1H-indol-3-yl)pyrimidin-2-ylamino)cyclohexyl)-3-fluorobenzamide] | 0.1 to 1 | > 5 |
| Nc1ccc(C(=O)N[C@H]2CCC[C@@H](Nc3ncc(Cl)c(-c4c[nH]c5ccccc45)n3)C2)c(F)c1 [Compound 112, 4-amino-N-((1S,3R)-3-(5-chloro-4-(1H-indol-3-yl)pyrimidin-2-ylamino)cyclohexyl)-2-fluorobenzamide] | 0.1 to 1 | 0.5 to 5 |
| NC(=O)C(=O)Nc1ccc(C(=O)N[C@H]2CCC[C@@H](Nc3ncc(Cl)c(-c4c[nH]c5ccccc45)n3)C2)cc1 [Compound 113, N1-(4-(((1S,3R)-3-((5-chloro-4-(1H-indol-3-yl)pyrimidin-2-yl)amino)cyclohexyl)carbamoyl)phenyl)oxalamide] | 0.1 to 1 | 0.5 to 5 |
| Nc1ccc(C(=O)N[C@H]2CCC[C@@H](Nc3nccc(-c4c[nH]c5ccccc45)n3)C2)cc1 [Compound 114, N-((1S,3R)-3-(4-(1H-indol-3-yl)pyrimidin-2-ylamino)cyclohexyl)-4-aminobenzamide] | > 1 | – |

Now from value to molecule:

| IC50 (CDK7) [µM] | IC50 (Jurkat cells) [µM] | SMILES |
| --- | --- | --- |
| < 0.1 | 0.5 to 5 | Nc1ccc(C(=O)N[C@H]2C[C@H](O)C[C@@H](Nc3ncc(Cl)c(-c4c[nH]c5ccccc45)n3)C2)cc1 (racemic) [Compound 101, (+/−)-4-amino-N-(3-(5-chloro-4-(1H-indol-3-yl)pyrimidin-2-ylamino)-5-hydroxycyclohexyl)benzamide] |
| 0.1 to 1 | – | Nc1ccc(C(=O)NC2CC(F)CC(Nc3ncc(Cl)c(-c4c[nH]c5ccccc45)n3)C2)cc1 (racemic) [Compound 110, (+/−)-4-amino-N-(3-(5-chloro-4-(1H-indol-3-yl)pyrimidin-2-ylamino)-5-fluorocyclohexyl)benzamide] |
| 0.1 to 1 | > 5 | Nc1ccc(C(=O)N[C@H]2CCC[C@@H](Nc3ncc(Cl)c(-c4c[nH]c5ccccc45)n3)C2)cc1 [Compound 102, 4-amino-N-((1S,3R)-3-(5-chloro-4-(1H-indol-3-yl)pyrimidin-2-ylamino)cyclohexyl)benzamide] |
| 0.1 to 1 | > 5 | Nc1ccc(C(=O)N[C@H]2CCC[C@@H](Nc3ncc(C4CC4)c(-c4c[nH]c5ccccc45)n3)C2)cc1 [Compound 103, 4-amino-N-((1S,3R)-3-(5-cyclopropyl-4-(1H-indol-3-yl)pyrimidin-2-ylamino)cyclohexyl)benzamide.HCl] |
| 0.1 to 1 | > 5 | Nc1ccc(C(=O)NC23CCCC(Nc4ncc(Cl)c(-c5c[nH]c6ccccc56)n4)(C2)C3)cc1 [Compound 104, 4-amino-N-(5-(5-chloro-4-(1H-indol-3-yl)pyrimidin-2-ylamino)bicyclo[3.1.1]heptan-1-yl)benzamide] |
| < 0.1 | 0.5 to 5 | CN(C)CCCC(=O)Nc1ccc(C(=O)N[C@H]2CCC[C@@H](Nc3ncc(Cl)c(-c4c[nH]c5ccccc45)n3)C2)cc1 [Compound 105, N-((1S,3R)-3-((5-chloro-4-(1H-indol-3-yl)pyrimidin-2-yl)amino)cyclohexyl)-4-(4-(dimethylamino)butanamido)benzamide] |
| < 0.1 | > 5 | Nc1ccc(NC(=O)[C@H]2CCC[C@@H](Nc3ncc(Cl)c(-c4c[nH]c5ccccc45)n3)C2)cc1 [Compound 106, (1S,3R)—N-(4-aminophenyl)-3-(5-chloro-4-(1H-indol-3-yl)pyrimidin-2-ylamino)cyclohexanecarboxamide] |
| < 0.1 | < 0.5 | N#Cc1cnc(N[C@@H]2CCC[C@H](NC(=O)c3ccc(N)cc3)C2)nc1-c1c[nH]c2ccccc12 [Compound 107, 4-amino-N-((1S,3R)-3-(5-cyano-4-(1H-indol-3-yl)pyrimidin-2-ylamino)cyclohexyl)benzamide] |
| 0.1 to 1 | 0.5 to 5 | Nc1ccc(S(=O)(=O)N[C@H]2CCC[C@@H](Nc3ncc(Cl)c(-c4c[nH]c5ccccc45)n3)C2)cc1 [Compound 109, 4-amino-N-((1S,3R)-3-(5-chloro-4-(1H-indol-3-yl)pyrimidin-2-ylamino)cyclohexyl)benzenesulfonamide] |
